Assay results taken from paper PMC8153121, “N-Alkylation of Anthracycline Antibiotics by Natural Sesquiterpene Lactones as a Way to Obtain Antitumor Agents with Reduced Side Effects” (Biomedicines, 2021).
Where two headings read alike, the source gives them in different places.

Legend:
[1] = biological target: T1, cytochrome-c-oxidase complex of the mitochondrial respiratory chain (IV) (Rattus norvegicus, UniProt P00406+P05503+P05505); assay: Respiratory chain complex IV, OCR of isolated rat heart mitochondria (Seahorse); type: biochemical; details: isolated rat heart mitochondria 10 μg/well, compounds at 30 μM
T1 construct: Rat heart mitochondria were isolated by differential centrifugation; from tissue; host or cells: rat heart mitochondria
T1 sequence (P00406 whole entry, other chains not shown): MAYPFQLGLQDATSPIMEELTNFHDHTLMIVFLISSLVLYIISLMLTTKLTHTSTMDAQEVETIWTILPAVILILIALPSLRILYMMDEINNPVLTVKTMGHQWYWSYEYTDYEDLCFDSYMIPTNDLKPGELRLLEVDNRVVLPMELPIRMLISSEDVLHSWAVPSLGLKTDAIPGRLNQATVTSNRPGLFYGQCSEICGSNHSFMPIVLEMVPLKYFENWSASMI
T1 sequence (P05505 whole entry, other chains not shown): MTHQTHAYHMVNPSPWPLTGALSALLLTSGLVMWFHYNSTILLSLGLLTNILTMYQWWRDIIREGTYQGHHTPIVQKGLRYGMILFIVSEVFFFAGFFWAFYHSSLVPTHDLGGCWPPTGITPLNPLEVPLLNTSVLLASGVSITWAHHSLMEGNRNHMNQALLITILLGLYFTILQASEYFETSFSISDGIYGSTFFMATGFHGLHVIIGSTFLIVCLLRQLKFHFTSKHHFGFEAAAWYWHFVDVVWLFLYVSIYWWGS
Description: (§1) Rat heart mitochondria were isolated by differential centrifugation using ice-cold buffer containing KCl (120 mM) and HEPES (20 mM), pH = 7.4, and a trypsin inhibitor. The mitochondrial yield ranged from 5 to 10 mg/mL of protein in the heart sediment. Mitochondria were stored in plastic containers at 4 °C.
(§2) The effect of the compounds on the functioning of the electron transport chain complexes was carried out using an Agilent Seahorse XF96e Analyzer (Seahorse Bioscience, Billerica, MA, USA) according to their ability to change the rate of oxygen uptake by isolated rat heart mitochondria (10 μg/well). The following modulators were used: activators of complex I of the electron transport chain, NADH dehydrogenase,—glutamate/malate; rotenone (2 μM) (Sigma Aldrich, Saint Louis, USA)—a tissue respiration blocker that stops the transfer of electrons from the reduced form of NADH to cytochrome b, was used as complex I inhibitor; potassium succinate ([…]) (Dia-M, Moscow, Russia), which is a substrate of complex II of the electron transport chain, made it possible to assess mitochondrial respiration mediated by succinate dehydrogenase; complex III (ubiquinol-cytochrome c-oxidoreductase) inhibitor—a blocker of cellular respiration antimycin A (Sigma Aldrich, Saint Louis, USA), as well as ascorbate/TMPD (0.5 μM) (Sigma Aldrich, Saint Louis, USA), allowed us to evaluate the cytochrome-c-oxidase mediated respiration of organelles.

[2] = tested on: HEK293 (embryonic kidney); assay: MTT cell viability test, non-transformed HEK293; type: cell-based, Human; details: MTT, 72 h, non-transformed cells, read-out: IC50, HEK293
Description: (§3) Human cell cultures of tumor origin (A549 (lung carcinoma), HCT116 (colon adenocarcinoma), MCF7 (breast cancer), RD (embryonic rhabdomyosarcoma)), and the line of non-transformed cells HEK293 (embryonic kidney) provided by the Laboratory of Tumor Cell Genetics at the N.N. Blokhin Russian Cancer Research Institute, as well as by the Institute of Cytology of the Russian Academy of Sciences, were grown in DMEM (Gibco, Scotland, UK) and MEM (Gibco, Scotland, UK) containing fetal calf serum (10% by volume) (ThermoFisher Scientific, Paisley, UK), L-glutamine (2 mM) (Gibco, Scotland, UK), and penicillin-streptomycin (1% by volume) (PanEco, Moscow, Russia).
(§4) Cellular viability was determined by the MTT test. […] After 24 h of incubation, various concentrations of the test compounds dissolved in DMSO (≤1%) were added to the cell cultures, the solvent was added to the control wells in an equal volume, and then the cells were cultured under the same conditions for 72 h. After the incubation time, MTT (3-(4,5-dimethylthiazol-2-yl)-2,5-diphenyltetrazolium bromide, 5 mg/mL) was added to each well, and the plates were further incubated for 2 h (until a characteristic color appeared). Then, the formazan granules were dissolved in DMSO.
(§5) Using a plate analyzer (Cytation3, BioTech Instruments Inc., USA), the optical density was determined at λ = 530 nm.

[3] = biological target: T2, complex II of the electron transport chain (Rattus norvegicus, UniProt P21913+Q641Z9+Q6PCT8+Q920L2); assay: Respiratory chain complex II, OCR of isolated rat heart mitochondria (Seahorse); type: biochemical; details: isolated rat heart mitochondria 10 μg/well, compounds at 30 μM
T2 construct: Rat heart mitochondria were isolated by differential centrifugation; from tissue; host or cells: rat heart mitochondria
T2 sequence (Q920L2 35-656): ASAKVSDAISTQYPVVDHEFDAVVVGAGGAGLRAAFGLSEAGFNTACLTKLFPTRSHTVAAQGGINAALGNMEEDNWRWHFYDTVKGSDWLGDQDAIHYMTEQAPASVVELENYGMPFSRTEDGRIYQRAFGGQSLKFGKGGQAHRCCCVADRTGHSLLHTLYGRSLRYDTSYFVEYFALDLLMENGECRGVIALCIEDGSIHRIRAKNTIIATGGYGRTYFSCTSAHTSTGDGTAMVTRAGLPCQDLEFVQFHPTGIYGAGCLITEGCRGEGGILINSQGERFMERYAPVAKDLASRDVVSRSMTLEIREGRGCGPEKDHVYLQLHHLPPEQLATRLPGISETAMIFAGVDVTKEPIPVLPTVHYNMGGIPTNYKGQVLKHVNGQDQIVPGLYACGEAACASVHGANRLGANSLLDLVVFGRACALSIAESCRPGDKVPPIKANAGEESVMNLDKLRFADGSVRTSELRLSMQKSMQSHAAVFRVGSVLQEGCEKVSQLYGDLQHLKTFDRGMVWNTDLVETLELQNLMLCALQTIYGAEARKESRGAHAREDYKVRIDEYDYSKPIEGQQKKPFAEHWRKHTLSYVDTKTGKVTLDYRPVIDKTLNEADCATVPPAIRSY
T2 sequence (P21913 31-282): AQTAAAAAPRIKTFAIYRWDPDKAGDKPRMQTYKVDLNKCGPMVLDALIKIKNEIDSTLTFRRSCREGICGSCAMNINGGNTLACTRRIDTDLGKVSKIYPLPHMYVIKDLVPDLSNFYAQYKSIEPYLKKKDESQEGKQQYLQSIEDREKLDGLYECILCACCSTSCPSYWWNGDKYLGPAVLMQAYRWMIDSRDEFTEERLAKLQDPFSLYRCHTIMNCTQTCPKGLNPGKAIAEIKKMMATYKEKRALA
T2 sequence (Q641Z9 30-169 limits assumed): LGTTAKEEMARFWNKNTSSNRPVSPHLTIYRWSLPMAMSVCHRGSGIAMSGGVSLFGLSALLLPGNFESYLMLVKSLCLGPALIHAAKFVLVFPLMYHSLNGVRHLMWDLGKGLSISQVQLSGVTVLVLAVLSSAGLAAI
T2 sequence (Q6PCT8 57-159): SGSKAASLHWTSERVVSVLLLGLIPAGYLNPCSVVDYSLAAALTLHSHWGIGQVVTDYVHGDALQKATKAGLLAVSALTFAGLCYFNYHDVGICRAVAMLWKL
Description: as §1, §2

[4] = tested on: RD (embryonic rhabdomyosarcoma); assay: MTT cell viability test, RD; type: cell-based, Human; details: MTT, 72 h, read-out: IC50, RD
Description: as §3, §4, §5

[5] = tested on: HCT116 (colon adenocarcinoma); assay: MTT cell viability test, HCT116; type: cell-based, Human; details: MTT, 72 h, read-out: IC50, HCT116
Description: as §3, §4, §5

MCF7 (breast cancer) = assay: MTT cell viability test, MCF7; type: cell-based, Human; details: MTT, 72 h, read-out: IC50, MCF7
Description: as §3, §4, §5

A549 (lung carcinoma) = assay: MTT cell viability test, A549; type: cell-based, Human; details: MTT, 72 h, read-out: IC50, A549
Description: as §3, §4, §5

rat heart mitochondria = assay: Mitochondrial swelling; type: biochemical; details: rat heart mitochondria 0.5 mg/mL, compounds at 100 μM, Ca2+ 25 μM
Description: as §1
Mitochondrial swelling was recorded by the light transmission of the rat heart mitochondrial suspension at λ = 540 nm using a Victor 3 plate analyzer (Perkin Elmer, Germany). The swelling rate was estimated as △A540/min and was calculated as the tangent of the angle of the steepest dependence curve part △A540 versus time.

| Work of Respiratory Chain Complexes, % Decrease in OCR of Control, IV [1] | Work of Respiratory Chain Complexes, % Decrease in OCR of Control, II [3] | IC50 [5] [µM] | IC50 (MCF7 (breast cancer)) [µM] | IC50 (A549 (lung carcinoma)) [µM] | IC50 ([5]; Homo sapiens, HCT-116, 72 h) [µM] | IC50 (MCF7 (breast cancer); Homo sapiens, MCF7, 72 h) [µM] | IC50 (A549 (lung carcinoma); Homo sapiens, A549, 72 h) [µM] | Structure (SMILES) | IC50 [2] [µM] | IC50 [4] [µM] | Mitochondrial Swelling, % of Ca2+-Induced Swelling (rat heart mitochondria) | IC50 ([2]; Homo sapiens, HEK293, 72 h) [µM] | IC50 ([4]; Homo sapiens) [µM] |
| --- | --- | --- | --- | --- | --- | --- | --- | --- | --- | --- | --- | --- | --- |
| 20.45 ± 5.85% | 39.11 ± 4.05% | 4.55 ± 0.03 | 26.8 ± 0.65 | 3.29 ± 0.11 | – | – | – | COc1cccc2c1C(=O)c1c(O)c3c(c(O)c1C2=O)C[C@@](O)(C(=O)CO)C[C@@H]3O[C@H]1C[C@H](NC[C@H]2C(=O)O[C@@H]3C[C@@]4(C)CCC[C@H](C)C4=C[C@@H]32)[C@H](O)[C@H](C)O1 [Compound 2a] | 29.83 ± 0.18 | 2.67 ± 0.11 | 31.51 ± 8.35% | – | – |
| – | – | – | – | – | 5.12 ± 0.05 | 11.4 ± 0.32 | 21.5 ± 0.75 | C=C1C(=O)O[C@@H]2C[C@@]3(C)CCC[C@H](C)[C@@]34O[C@H]4[C@H]12 [Compound 5, epoxyalantholactolactone, reference compound] | – | – | – | 38.1 ± 1.08 | 4.81 ± 0.12 |
| – | – | – | – | – | 34.5 ± 3.51 | 17.9 ± 0.68 | 23.1 ± 1.18 | C=C1C(=O)O[C@@H]2C[C@@]3(C)CCCC(C)=C3C[C@H]12 [Compound 3, alloalantholactone, reference compound] | – | – | – | 35.9 ± 0.48 | 8.82 ± 0.14 |
| – | – | – | – | – | 21.4 ± 0.32 | 31.87 ± 0.14 | 83.51 ± 0.26 | C=C1C(=O)OC2CC3(C)CCCC4(CO4)C3CC12 (stereo not drawn) [Compound 4, epoxy-isoalantholactone, reference compound] | – | – | – | 106 ± 4.13 | 18.6 ± 0.21 |
| – | – | – | – | – | 10.57 ± 0.04 | 13.2 ± 0.93 | 36.7 ± 1.43 | C=C1C(=O)O[C@@H]2C[C@@]3(C)CCC[C@H](C)C3=C[C@H]12 [Compound 2, alantolactone, reference compound] | – | – | – | 36.47 ± 0.07 | 5.48 ± 0.2 |
| – | – | 9.75 ± 0.57 | 24 ± 0.8 | 50.3 ± 1.11 | 10.8 ± 0.18 | 38.6 ± 0.86 | 61.7 ± 2.4 | C=C1C(=O)OC2CC3(C)CCCC4(C)OC34CC12 (stereo not drawn) [Compound 6, epoxyalloalantholactone, reference compound] | 18.5 ± 0.2 | 8.77 ± 0.01 | – | 29.77 ± 0.05 | 16.8 ± 0.28 |
| 41.69 ± 2.13% | 26.74 ± 4.56% | 0.26 ± 0.01 | 1.47 ± 0.04 | 0.56 ± 0.01 | – | – | – | COc1cccc2c1C(=O)c1c(O)c3c(c(O)c1C2=O)CC(O)(C(C)=O)CC3OC1CC(NCC2C(=O)OC3CC4(C)CCCC5(C)OC45CC32)C(O)C(C)O1 (mixture of isomers) [Compound 6b] | 3.68 ± 0.16 | 0.41 ± 0.02 | — (“—” indicates activity absence for compounds (≤10%) in a particular test) | – | – |

| Structure (SMILES) | Work of Respiratory Chain Complexes, % Decrease in OCR of Control, IV [1] | Work of Respiratory Chain Complexes, % Decrease in OCR of Control, II [3] | IC50 [5] [µM] | IC50 (MCF7 (breast cancer)) [µM] | IC50 (A549 (lung carcinoma)) [µM] | IC50 ([5]; Homo sapiens, HCT-116, 72 h) [µM] | IC50 (MCF7 (breast cancer); Homo sapiens, MCF7, 72 h) [µM] | IC50 (A549 (lung carcinoma); Homo sapiens, A549, 72 h) [µM] | IC50 [2] [µM] | IC50 [4] [µM] | Mitochondrial Swelling, % of Ca2+-Induced Swelling (rat heart mitochondria) | IC50 ([2]; Homo sapiens, HEK293, 72 h) [µM] | IC50 ([4]; Homo sapiens) [µM] |
| --- | --- | --- | --- | --- | --- | --- | --- | --- | --- | --- | --- | --- | --- |
| C=C1CCCC2(C)CC3OC(=O)C(CNC4CC(OC5CC(O)(C(C)=O)Cc6c(O)c7c(c(O)c65)C(=O)c5c(OC)cccc5C7=O)OC(C)C4O)C3CC12 (stereo not drawn) [Compound 1b] | — (“—” indicates activity absence for compounds (≤10%) in a particular test) | — (“—” indicates activity absence for compounds (≤10%) in a particular test) | 0.28 | 3.95 ± 0.03 | 0.93 ± 0.06 | – | – | – | 3.43 ± 0.04 | 0.96 ± 0.02 | — (“—” indicates activity absence for compounds (≤10%) in a particular test) | – | – |
